Experimental data published in patent US12459934B2, “Pesticidal compounds” (BASF SE, priority 2018, dated 2025).

Legend:
Format in all cases: in vivo
[1] = test system: boll weevil (Anthonomus grandis); experiment: Boll weevil control, 96-well microtiter plate with insect diet and eggs; conditions: 120 h, sprayed onto insect diet, assessed after 5 days, read-out: mortality in comparison with untreated controls (egg and larval mortality)
Procedure: For evaluating control of boll weevil (Anthonomus grandis) the test unit consisted of 96-well-microtiter plates containing an insect diet and 5-10 A. grandis eggs.
The compounds were formulated using a solution containing 75% v/v water and 25% v/v DMSO. Different concentrations of formulated compounds were sprayed onto the insect diet at 5 μl, using a custom built micro atomizer, at two replications.
After application, microtiter plates were incubated at about 25±1° C. and about 75±5% relative humidity for 5 days. Egg and larval mortality was then visually assessed.

[2] = test system: Diamond Back Moth (Plutella xylostella); experiment: Diamond back moth, cabbage leaf dip test; conditions: foliar, 3rd instar larvae, 72 hours after treatment, read-out: mortality in comparison with untreated controls
Procedure: The active compound is dissolved at the desired concentration in a mixture of 1:1 (vol:vol) distilled water:acetone. Surfactant (Alkamuls® EL 620) is added at a rate of 0.1% (vol/vol). The test solution is prepared at the day of use.
Leaves of cabbage were dipped in test solution and air-dried. Treated leaves were placed in petri dish enlined with moist filter paper and inoculated with ten 3rd instar larvae. Mortality was recorded 72 hours after treatment. Feeding damages were also recorded using a scale of 0-100%.

[3] = test system: Southern Armyworm (Spodoptera eridania), 2nd Instar Larvae; experiment: Southern armyworm 2nd instar larvae on sprayed lima bean plants; conditions: 96 h, 4 days after treatment, read-out: mortality in comparison with untreated controls
Procedure: (§1) The active compounds were formulated in cyclohexanone as a 10,000 ppm solution supplied in tubes. The tubes were inserted into an automated electrostatic sprayer equipped with an atomizing nozzle and they served as stock solutions for which lower dilutions were made in 50% acetone:50% water (v/v). A nonionic surfactant (Kinetic®) was included in the solution at a volume of 0.01% (v/v).
Lima bean plants (variety Sieva) were grown 2 plants to a pot and selected for treatment at the 1st true leaf stage. Test solutions were sprayed onto the foliage by an automated electrostatic plant sprayer equipped with an atomizing spray nozzle. The plants were dried in the sprayer fume hood and then removed from the sprayer. Each pot was placed into perforated plastic bags with a zip closure. About 10 to 11 armyworm larvae were placed into the bag and the bags zipped closed. Test plants were maintained in a growth room at about 25° C. and about 20-40% relative humidity for 4 days, avoiding direct exposure to fluorescent light (24 hour photoperiod) to prevent trapping of heat inside the bags. Mortality and reduced feeding were assessed 4 days after treatment, compared to untreated control plants.

[4] = test system: tobacco budworm (Heliothis virescens); experiment: Tobacco budworm control, 96-well microtiter plate with insect diet and eggs; conditions: 120 h, sprayed onto insect diet, assessed after 5 days, read-out: mortality in comparison with untreated controls (egg and larval mortality)
Procedure: For evaluating control of tobacco budworm (Heliothis virescens) the test unit consisted of 96-well-microtiter plates containing an insect diet and 15-25 H. virescens eggs.
The compounds were formulated using a solution containing 75% v/v water and 25% v/v DMSO. Different concentrations of formulated compounds were sprayed onto the insect diet at 10 μl, using a custom built micro atomizer, at two replications.
After application, microtiter plates were incubated at about 28±1° C. and about 80±5% relative humidity for 5 days. Egg and larval mortality was then visually assessed.

[5] = test system: yellow fever mosquito (Aedes aegypti); experiment: whole plant or invertebrate; conditions: 48 h, freshly hatched larvae in tap water, assessed after 2 days, read-out: mortality in comparison with untreated controls (larval mortality)
Procedure: For evaluating control of yellow fever mosquito (Aedes aegypti) the test unit consisted of 96-well-microtiter plates containing 200 μl of tap water per well and 5-15 freshly hatched A. aegypti larvae. The active compounds were formulated using a solution containing 75% (v/v) water and 25% (v/v) DMSO. Different concentrations of formulated compounds or mixtures were sprayed onto the insect diet at 2.5 μl, using a custom built micro atomizer, at two replications.
After application, microtiter plates were incubated at 28+1° C., 80+5% RH for 2 days. Larval mortality was then visually assessed.

[6] = test system: Orchid Thrips (Dichromothrips corbetti); experiment: Orchid thrips, floral-immersion technique; conditions: dipped orchid petals, adult thrips, 72 hours after treatment, read-out: mortality in comparison with untreated controls
Procedure: Dichromothrips corbetti adults used for bioassay were obtained from a colony maintained continuously under laboratory conditions. For testing purposes, the test compound is diluted in a 1:1 mixture of acetone:water (vol:vol), plus Kinetic® HV at a rate of 0.01% v/v.
Thrips potency of each compound was evaluated by using a floral-immersion technique. All petals of individual, intact orchid flowers were dipped into treatment solution and allowed to dry in Petri dishes. Treated petals were placed into individual re-sealable plastic along with about 20 adult thrips. All test arenas were held under continuous light and a temperature of about 28° C. for duration of the assay. After 3 days, the numbers of live thrips were counted on each petal. The percent mortality was recorded 72 hours after treatment.

[7] = test system: Western Flower Thrips (Frankliniella occidentalis); experiment: Western flower thrips on leaf discs of sprayed cotton plants; conditions: foliar, 48 h, 2 DAT (days after treatment), read-out: mortality in comparison with untreated controls
Procedure: The active compounds were formulated by a Tecan liquid handler in 100% cyclohexanone as a 10,000 ppm solution supplied in tubes. The 10,000 ppm solution was serially diluted in 100% cyclohexanone to make interim solutions. These served as stock solutions for which final dilutions were made by the Tecan in 50% acetone:50% water (v/v) into 10 or 20 ml glass vials. A nonionic surfactant (Kinetic®) was included in the solution at a volume of 0.01% (v/v). The vials were then inserted into an automated electrostatic sprayer equipped with an atomizing nozzle for application to plants/insects.
Small (˜2″ in height) cotton plants are sprayed with test compounds at concentrations ranging from 300 to 0.01 ppm in acetone/water through the automated VPS. After drying, cotton leaves are removed and circular leaf discs (−1 cm diameter) are punched from the treated surface and transferred to clean 20 mL scintillation vials. Ten Western flower thrips (FRANOC) are aspirated into each scintillation vial. The vials with the leaf discs and thrips are kept in an upright incubator at 25° C. and 50% relative humidity with a 14:10 light:dark photoperiod. Each treatment is replicated twice.
Thrips mortality is assessed at 2 DAT (days after treatment), counting all thrips both dead and alive. [The average absolute mortality is calculated for each treatment.]

[8] = test system: Silverleaf Whitefly (Bemisia argentifolii) (Adults); experiment: Silverleaf whitefly adults on sprayed cotton plants; conditions: 72 h, 3 days after treatment, read-out: mortality in comparison with untreated controls
Description: as §1, with “non-ionic” for “nonionic”
Cotton plants at the cotyledon stage (one plant per pot) were sprayed by an automated electrostatic plant sprayer equipped with an atomizing spray nozzle. The plants were dried in the sprayer fume hood and then removed from the sprayer. Each pot was placed into a plastic cup and about 10 to 12 whitefly adults (approximately 3-5 days old) were introduced. The insects were collected using an aspirator and a nontoxic Tygon® tubing connected to a barrier pipette tip. The tip, containing the collected insects, was then gently inserted into the soil containing the treated plant, allowing insects to crawl out of the tip to reach the foliage for feeding. Cups were covered with a reusable screened lid. Test plants were maintained in a growth room at about 25° C. and about 20-40% relative humidity for 3 days, avoiding direct exposure to fluorescent light (24-hour photoperiod) to prevent trapping of heat inside the cup. Mortality was assessed 3 days after treatment, compared to untreated control plants.

CC(C)c1ccccc1NC(=S)N/N=C/c1ccc2c(C(=O)Nc3ccc(OC(F)(F)F)cc3)nccc2c1 [Compound C-1, 6-[(E)-[(2-isopropylphenyl)carbamothioylhydrazono]methyl]-N-[4-(trifluoromethoxy)phenyl]isoquinoline-1-carboxamide]
> 75%: mortality at 800 ppm [1] | mortality at 300 ppm [2] | mortality at 300 ppm [3] | mortality at 800 ppm [4] | mortality at 800 ppm [5] | mortality at 300 ppm [6] | mortality at 300 ppm [7]

CC(C)c1ccccc1N1C(=O)CS/C1=N\N=C\c1ccc2c(C(=O)Nc3ccc(OC(F)(F)F)cc3)nccc2c1 [Compound C-2, 6-[(E)-[(Z)-[3-(2-isopropylphenyl)-4-oxo-thiazolidin-2-ylidene]hydrazono]methyl]-N-[4-(trifluoromethoxy)phenyl]isoquinoline-1-carboxamide]
> 75%: mortality at 800 ppm [1] | mortality at 300 ppm [2] | mortality at 300 ppm [8] | mortality at 300 ppm [3] | mortality at 800 ppm [4] | mortality at 800 ppm [5] | mortality at 300 ppm [6] | mortality at 300 ppm [7]
